The values below come from patent US20150173358A1, “HERBICIDAL COMPOSITIONS CONTAINING IMAZAPIC, AMINOPYRALID AND OPTIONALLY METSULFURON” (DOW AGROSCIENCES LLC, priority 2013, published 2015).

This experiment relates to BOIVE: whitehead broom (Borerria verticillata). Kind of experiment: Postemergence herbicidal activity of mixtures in the field (visual weed control). The experiment is classed as in vivo. How it is done: Field trials were conducted in Brazil in pasture area cultivated with Brachiaria brizantha using standard herbicide small-plot research methodology. The plot size used was 3×8 meter (m; width×length) with 4 replicates per treatment. The pasture was grown using normal cultural practices for fertilization, management, and maintenance to ensure good growth of the crop and the weeds.
All treatments in the field trials were applied using a carbon dioxide (CO2) backpack air sprayer with flat fan nozzles (110.03°), calibrated to apply 250 liters per hectare (L/ha) spray volume at approximately 35 pounds per square inch (PSI). Formulations of aminopyralid (triisopropanolammonium salt) at 100 grams acid equivalent per hectare (g ae/ha) and aminopyralid (potassium salt, 525grams acid equivalent per kilogram (g ae/kg))+metsulfuron-methyl (94.5 grams active ingredient per kilogram (g ai/kg)) at 118 grams per hectare (g/ha) were mixed with imazapic at 70 and 140 g ae/ha and water+Joint Mineral Oil at appropriate formulated product rates to achieve the desired rates based on a unit area of application (hectare) as shown. Treatments were rated at 15 to 281 days after application (DAA) as compared to the untreated control plants. Visual weed control of BOIVE was scored on a scale of 0 to 100 percent where 0 corresponds to no injury and 100 corresponds to complete kill.
All treatment results, both for the single product and mixtures, are an average of 3 to 4 replicates and the tank-mix interactions are significant at the […] level.
Colby's equation was used to determine the herbicidal effects expected from the mixtures (Colby, S.R. Calculation of the synergistic and antagonistic response of herbicide combinations. Weeds 1967, 15, 20-22). […]
The experiments described herein in Table 2 were performed such that the “B” component in Colby's equation was the activity for the combination of aminopyralid and metsulfuron and only the activity for the combination was determined. […]

For the compound `Cc1cnc(C2=NC(C)(C(C)C)C(=O)N2)c(C(=O)O)c1` (racemic) [Imazapic, (±)-2-[4,5-dihydro-4-methyl-4-(1-methylethyl)-5-oxo-1H-imidazol-2-yl]-5-methyl-3-pyridinecarboxylic acid], the “% Visual Control BOIVE (281 DAA) Obs” value is, setting by setting: (Imazapic (ammonium salt) 70 g ae/ha alone, postemergence field trial, Brazil pasture) 0%; (Imazapic (ammonium salt) 140 g ae/ha alone, postemergence field trial) 14%.
For `Nc1cc(Cl)nc(C(=O)O)c1Cl` [Aminopyralid, 4-amino-3,6-dichloro-2-pyridinecarboxylic acid], under “Aminopyralid (triisopropanolammonium salt) 100 g ae/ha alone”, the “% Visual Control BOIVE (281 DAA) Obs” value is given as 41%.
